From article PMC4965013, “Open Source Drug Discovery with the Malaria Box Compound Collection for Neglected Diseases and Beyond” (PLoS Pathogens, 2016)
Read-outs that look alike come from different tables or passages of the source.

How the values were obtained:
A. ceylanicum L3 larvae = A. ceylanicum L3 larvae J. Keiser; format: cell-based, Ancylostoma ceylanicum; details: 200µM
[1] = Kinetic Solubility at pH 7.4 (LC/CLND); format: physicochemical; details: pH 7.4, aqueous buffer, kinetic from dmso stock; read-out: Kinetic Solubility >20µM at pH 7.4
Experimental: (§1) Columns GD-GJ: Wuxi Inc. data for MMV (data presented first in this paper) PK/DMPK Parameters: Fasted animals (Male CD-1 mouse, 7-9 weeks age, 30±10 g, n=3) obtained from an approved vendor (SLAC Laboratory Animal Co. Ltd., Shanghai, China or Sino-British SIPPR/BK Laboratory Animal Co. Ltd Shanghai, China) were administered with a single oral dose (140 μmol/kg) using DMSO: 1% HPMC (5:95) as a vehicle. Blood sampling was performed via the submandibular or saphenous vein (t=0.083, 0.25, 1, 2, 4, 6 and 9 h) and transferred into microcentrifuge tubes containing Sodium Heparin (1,000 IU/ml) as anti-coagulant placed on wet ice until processed for plasma by centrifugation at approximately 4°C, 3000×g for 15 min. Plasma samples were stored in polypropylene tubes, quick frozen over dry ice and kept at -70±10°C until LC/MS/MS analysis. LC/MS/MS methods for the quantitative determination compounds plasma levels were developed with an internal standard. […] (Phoenix WinNonlin, version 6.2.1, Pharsight, Mountain View, CA) and expressed as Cmax & AUC0-last. […] AUC0-last is the area under the curve expressed as >12 h*μM (Yes or No). Plasma protein binding assay (PPB) (CD-1 mouse and human) expressed as <95% bound, >95% bound, or >99% bound. Kinetic Solubility at pH 7.4 was determined by liquid chromatography/chemiluminescence nitrogen detection (LC/CLND) and was scored as greater than 20µM (Yes or No). hERG inhibition was measured at 11µM by the QPatch- HT system and is expressed as “Yes” if greater than 45% inhibited at 11µM and “No” if less than or equal to 45% inhibited at 11µM. As part of the Drug-Drug Interaction studies (DDI issues), 5 human and 1 mouse CYP isoforms (1A2, 2C9, 2C19, 2D6, 3A4-M, 3A4-T) were tested for inhibition assay at 10 µM. […] Otherwise DDI issues were scored as “No”. Positive and negative controls were run for each assay (Table 1).

[2] = test system: P. falciparum NF54 gametocytes stage IV/V; test: Gametocyte PrestoBlue resazurin assay Mancama; format: cell-based; details: Plasmodium falciparum, NF54; 5µM; read-out: NF54 gametocyte Late Stage IV/V Resazurin %inhibition
[3] = test system: Entamoeba histolytica Rahman; design: method as in ref [87] (a number printed in a supplementary file, which may have a reference list of its own: not looked up in the article's list); details: read-out: Entamoeba histolytica Rahman EC50 (30 means >30); ref [87]; cited from earlier work
[4] = test system: P. berghei liver stage in HepG2-A16-CD81EGFP; design: method as in ref [58, 65] (a number printed in a supplementary file, which may have a reference list of its own: not looked up in the article's list); details: ref [58, 65], cited from earlier work; for P. berghei Liver stage activity summary: 50uM; for P. berghei Liver stage infection rate rep1 (luciferase) / P. berghei Liver stage infection rate rep2 (luciferase): 50µM
[5] = test system: Leishmania infantum MHOM/MA/BE/67; details: ref [84]; read-out: Leishmania infantum EC50 intracellular amastigotes in primary macrophages; cited from earlier work
[6] = test system: HIV-1 JR-FL or HIV-1 NL4-3 viruses; test: HIV-1 viral production p24 ELISA; format: cell-based
Experimental: Columns FK-GB, Moore group (data presented first in this paper). HIV and HIV-producing cell lines, toxicity and viral suppression. […] MMV compounds were incubated with HIV-1 JR-FL or HIV-1 NL4-3 pseudoviruses and U87-CD4-CCR5 or U87-CD4-CXCR4 cells (obtained through the NIH AIDS Reagent Program, Division of AIDS, NIAID, NIH: U87 CD4+CCR5+ Cells from Dr. HongKui Deng and Dr. Dan R. Littman) respectively for 3 days. Cells were assayed for infection by luciferase production (Bright-Glo Luciferase Substrate, Promega) and cell viability by MTT assay. […] MMV compounds were next incubated with HIV-1 JR-FL or HIV-1 NL4-3 viruses and U87-CD4-CCR5 or U87-CD4-CXCR4 cells respectively for 7 days. Cell supernatants were assayed for viral production by p24 ELISA [153] and cell viability by MTT assay. […] DMSO (5%) was completely toxic to all cells (based on visual inspection) and served as the positive control for MTT assays.

[7] = test system: P. falciparum NF54Pfs16 gametocytes stage I-III; details: ref [61], cited from earlier work
T. cruzi Tulahuen = details: ref [84]; read-out: Trypanosoma cruzi Tulahuen intracellular amastigotes in MRC5 cell line EC50; cited from earlier work
Mycobacterium marinum = test: M. marinum antibiotic assay; format: cell-based; details: 10µM
Experimental: Columns FA-FC: Soldati Group (data presented first in this paper). M. marinum, D. discoideum, and Acathamoeba castellani assays. Each compound of the Malaria Box has been assayed at 10 µM in all three assays. First, the antibiotic activity was assayed directly against Mycobacterium marinum in its culture medium. Second, the toxicity and growth inhibitory effect of the compounds was assayed against the amoeba Dictyostelium discoideum in its culture medium. Finally, the “in cellulo” anti-infective activity of each compound was tested using the intracellular infection system Acanthamoeba castellanii-M. marinum. Values have been normalized using the DMSO carrier. For each assay, values have been normalized to 1.00 using the DMSO carrier, which has no detectable effect on D. discoideum nor M. marinum growth, while rifabutin was used as positive control for the antibiotic assay and the infection assay, as it abolishes M. marinum growth (normalized value under 0.10) in broth at 10 µM and intracellularly at 30 µM [150].

[8] = Plasma protein binding mouse; format: in vitro ADME; details: CD-1, mouse
Experimental: as §1

wild type yeast cells = test: WT yeast (PMT assay control); details: Saccharomyces cerevisiae
[9] = test system: P. falciparum 3D7A stage V gametocytes, female gamete formation; design: method as in ref [73] (a number printed in a supplementary file, which may have a reference list of its own: not looked up in the article's list); details: 5µM; ref [73]; cited from earlier work
[10] = Human immunodeficiency virus 1, NL43, read-out: HIV R5 % inhibition rep3 in U87 (P24 NO Washout)
[11] = Human immunodeficiency virus 1, NL43, read-out: HIV R5 % inhibition rep3 in U87 (P24 Washout)
[12] = Human immunodeficiency virus 1, NL43, read-out: HIV X4 % inhibition rep3 in U87 (P24 NO Washout)
[13] = Human immunodeficiency virus 1, NL43, read-out: HIV X4 %inhibition rep3 in U87 (P24 Washout)
[14] = read-out: % Inhibition in WT yeast (PMT assay control), no added choline
[15] = read-out: % Inhibition in WT yeast (PMT assay control), with added choline

SMILES | Anyclostoma ceylanicum L3 larvae effect (%) (A. ceylanicum L3 larvae) | solubility kinetic [1] [µM] | inhibition at 5 µM [2] [%] | EC50 [3] [µM] | P. berghei Liver stage activity summary [4] | P. berghei Liver stage infection rate rep1 (luciferase) [4] [%] | P. berghei Liver stage infection rate rep2 (luciferase) [4] [%] | EC50 [5] [µM] | inhibition at 5 µM [6, 10] [%] | inhibition at 5 µM [6, 11] [%] | inhibition at 5 µM [6, 12] [%] | inhibition at 5 µM [6, 13] [%] | gametocyte early stage (I-III) luciferase % inhibition ([7]; 0.5µM) [%] | gametocyte early stage (I-III) luciferase % inhibition ([7]; 2.5µM) [%] | gametocyte early stage (I-III) luciferase % inhibition ([7]; 5µM) [%] | EC50 (T. cruzi Tulahuen) [µM] | fraction unbound [8] | inhibition at 100 µM (wild type yeast cells; [14]) [%] | inhibition at 100 µM (wild type yeast cells; [15]) [%] | 3D7A female gamete formation acridine orange % inhibition [9] [%] | other results
COc1ccc(C(=O)Nc2ccc3nc(N4CCCCC4)cc(C)c3c2)cc1OC [MMV019758] | 0 | < 20 | 18 | > 30 | tox (tox (toxic) if >50% HepG2) | -4 | -4 | 16.2 | 31 | 83 | 68 | 24 | -7 | -13 | -5.6 | 14.6 | < 0.01 | 0 | 0 |  | Mycobacterium marinum relative growth DMSO=1 Antibiotic Assay (Mycobacterium marinum): 1.01
COc1cc2cc(C(=O)Nc3ccccc3)c(N)nc2cc1OC [MMV006767] | 0 | > 20 | 0 | > 30 |  | 27 | 61 |  | 103 | 9 | 104 | 56 | -7 | 7.41 | 19 |  | > 0.05 | 0 | 0 | -3 | 
CCN(CC)c1cc(C)c2cc(NC(=O)c3cccc(OC)c3)ccc2n1 [MMV000498] | 0 | < 20 | 70 | > 30 | tox (tox (toxic) if >50% HepG2) | -3.74 | -5.7 | 16.2 |  | -9 | -118 | -40 | -15 | -18 | -3.81 | 13.7 | < 0.01 | 0 | 0 | 3 | Mycobacterium marinum relative growth DMSO=1 Antibiotic Assay (Mycobacterium marinum): 0.98
CCOC(=O)c1cnc2ccc(OC)cc2c1NCc1ccccc1 [MMV665813] | 0 | < 20 | 0 | > 30 | tox (tox (toxic) if >50% HepG2) | -3.22 | -4 | 10.1 | -50 | -13 | 20 | 16 | -13 | -10 | -8 | 13 | < 0.01 | 0 | 0 | -11 | Mycobacterium marinum relative growth DMSO=1 Antibiotic Assay (Mycobacterium marinum): 0.86
CCN1CCN(c2cc(C)c3cc(NC(=O)c4ccc(OC)c(OC)c4)ccc3n2)CC1 [MMV019074] | 0 | < 20 | 64 | > 30 | tox (tox (toxic) if >50% HepG2) | -3.74 | -4 | 6.35 |  | 7 | 14 | 6.64 | -13 | -14 | -6.56 | 6.59 | < 0.05 | 0 | 0 | -18 | 
